Read-outs that look alike come from different tables or passages of the source.
Assays:
[1] = system: lymphocytes from normal donors; experiment: qHTS luminescent ATP cell viability assay, primary screen, normal donor lymphocytes; conditions: differential efficacy or IC50 shift >5-fold
From the text: (§1) Lymphocytes from 13 CLL treatment naïve patients (Table 1 ) and 5 normal donors were obtained by lymphapheresis with written informed consent and isolated by gradient centrifugation using Lymphocyte Separation Medium (MP Biomedicals, Solon, OH) and used fresh or cryopreserved in liquid nitrogen in 10% dimethyl sulfoxide, 90% FCS. CLL patients were consented on the institutional review board (IRB) approved at the National Heart, Lung, and Blood Institute (NHLBI, Office of Clinical Affairs, Bldg 10, CRC. Room 6-5140, Bethesda, Maryland 20892-1608) with protocol 04-H-0012 and samples from normal donors were collected by the Department of Transfusion Medicine, National Institutes of Health (NIH). This study was approved by the IRB mentioned above. Fresh cells were temporally placed on ice and plated for screening within 3 hrs of apheresis. Frozen cells were thawed the night before the assay and incubated in T175 flask in AIM V medium to recover overnight. Analysis of IGHV gene status was performed as described. CLL samples were cultured in AIM V serum free medium (Gibco-Invitrogen, Long Island, NY).
(§2) Compound formatting and qHTS were performed as described previously. The final concentration of the NPC compounds in the 4 µL assay volume ranged from 57 µM to 0.7 nM in 1:5 dilution steps. The positive control plate format was as follows: columns 1 and 3, DMSO only; column 2, doxorubicin, a known cytotoxic chemotherapy agent in a 1:2 dilution series from 10 µM to 5 nM in DMSO; and column 4, doxorubicin at 10 µM in DMSO.
To determine compound activity in the qHTS assay, the concentration-response data for each sample was plotted and modeled by a four parameter logistic fit yielding IC50 and efficacy (maximal response) values as previously described. […] Briefly, raw plate reads for each titration point were first normalized relative to the positive control compound (100%) and DMSO-only wells (basal, 0%), and then corrected by applying a pattern correction algorithm using compound-free control plates (i.e., DMSO-only plates) at the beginning and end of the NPC compound plate stack. […]

caspase-3/7 = experiment: Caspase-Glo 3/7 activation assay in CLL samples; type: cell-based, human; conditions: CLL samples, 24 hours, read-out: EC50 caspase-3/7 activity
Protocol: The effect of selected compounds on caspase activity was measured using a homogeneous luminescent method (Caspase-Glo® 3/7, 8 and 9 kits, Promega, Madison, WI). Briefly in this assay, caspase induced by cells cleaves a pro-luciferin substrate where a tetrapeptide caspase substrate - DEVD (asp-glu-val-asp) is cleaved to free aminoluciferin, which can be used as a substrate by luciferase yielding a bioluminescent signal. The luminescent signal is proportional to the amount of caspase activity present in the cells. Cells were dispensed in culture medium at 5,000/cells/5uL/well in 1536-well white/solid-bottom assay plates. The cells were incubated for overnight at 37°C. The compounds (23nL/well) were added via the pin tool. The treated cells were further incubated for 24 h at 37°C, followed by the addition of the Caspase-Glo 3/7, 8 or 9 reagents at 5uL/well. After a 30 min incubation at room temperature, the luminescence intensity of the assay plates was measured using a ViewLux Plate Reader. The caspase activity was normalized to DMSO control.

[2] = system: fresh CLL patient lymphocytes; conditions: read-out: IC50 CLL, average of cells from 7 CLL patients, fresh, Figure 5
Protocol: (§3) Cell viability was measured using a luciferase-based ATP quantitation assay (CellTiter-Glo^TM, Promega). The intracellular ATP content indicates the number of viable (i.e. metabolically competent) cells after compound treatment. […] After that, a total of 23 nL of compounds at 8 selected concentrations from the NPC library or positive control (10 mM stock of doxorubicin hydrochloride) in DMSO was transferred to each well of the assay plate using a pintool (Kalypsys, San Diego, CA), and the plates were further incubated at 37 °C with 5% CO2 for 24 hours to allow the reaction. Then 4µL of CellTilter-Glo luminescent substrate mix was added to each well. The plate was incubated at room temperature for 15 minutes. The plates were measured on a ViewLux plate reader (PerkinElmer) with clear filter. […] The test volume of 5,000 cells/4 μL/well was selected as the final assay condition in cell density tests based on the assay performance statistics: signal/background ratio, coefficient of variation and Z’-factor (data not shown).
(§4) Fresh primary cells were also obtained from two unaffected normal donors and seven CLL patients whose blood samples were collected within hours of apheresis and which had not been included in our previous experiments.

[3] = system: lymphocytes from normal donors; conditions: for potency shift between CLL and normal donor samples: fresh cells, normal IC50 vs CLL IC50
Protocol: (§5) Cell viability was measured using a luciferase-based ATP quantitation assay (CellTiter-Glo^TM, Promega). The intracellular ATP content indicates the number of viable (i.e. metabolically competent) cells after compound treatment. Four µL of CLL cells resuspended in AIM medium at 1,330,000 cells/ml, were dispensed into each well of white, solid bottom, 1536-well tissue culture–treated plates using a Multidrop-Combi dispenser and incubated overnight. After that, a total of 23 nL of compounds at 8 selected concentrations from the NPC library or positive control (10 mM stock of doxorubicin hydrochloride) in DMSO was transferred to each well of the assay plate using a pintool (Kalypsys, San Diego, CA), and the plates were further incubated at 37 °C with 5% CO2 for 24 hours to allow the reaction. Then 4µL of CellTilter-Glo luminescent substrate mix was added to each well. The plate was incubated at room temperature for 15 minutes. The plates were measured on a ViewLux plate reader (PerkinElmer) with clear filter.
(§6) These compounds were then re-tested in the cell viability assay using 12 point titrations with concentration ranging from 57 µM to 0.3 nM with 1:3 dilution.
as §4

[4] = system: lymphocytic leukemia P388; set-up: method as in PMID 6778607; conditions: cited from earlier work
[5] = system: human thioredoxin reductase; set-up: method as in PMID 19665452; conditions: NADPH-reduced form; cited from earlier work
[6] = system: fresh CLL patient lymphocytes; experiment: cells; conditions: Homo sapiens, Lymphocyte
Protocol: as §3, §4

[7] = system: lymphocytes from normal donors; experiment: cells; conditions: Homo sapiens, Lymphocyte, read-out: IC50 normal
Protocol: as §5, §6, §4

primary CLL cells = experiment: qHTS luminescent ATP cell viability assay (CellTiter-Glo), primary screen, frozen CLL patient cells; type: cell-based, human; conditions: CLL cells, 24 h, Figure 1
From the text: as §1, §2
To determine compound activity in the qHTS assay, the concentration-response data for each sample was plotted and modeled by a four parameter logistic fit yielding IC50 and efficacy (maximal response) values as previously described. Data normalization and curve fitting were performed using in-house informatics tools. Briefly, raw plate reads for each titration point were first normalized relative to the positive control compound (100%) and DMSO-only wells (basal, 0%), and then corrected by applying a pattern correction algorithm using compound-free control plates (i.e., DMSO-only plates) at the beginning and end of the NPC compound plate stack. […] In brief, Class 1.1 and 1.2 were the highest-confidence complete CRCs containing upper and lower asymptotes with efficacies ≥ 80% and < 80%, respectively. Class 2.1 and 2.2 were incomplete CRCs having only one asymptote with efficacy ≥ 80% and < 80%, respectively.
Compounds from the primary qHTS screen were further classified into three categories according to the quality of curve fit and efficacy.

CLL = system: CLL; set-up: method as in PMID 20603650; conditions: oral, single-agent, treated CLL patients; cited from earlier work
[8] = system: ME-180 human cervical carcinoma cell line; experiment: Cell viability assay, ME-180 cells (NPC library profiling)
From the text: Based on the definition of actives, inactives and inconclusive mentioned above, compounds were further clustered hierarchically using Spotfire DecisionSite 8.2 (Spotfire Inc., Cambridge, MA) based on their activity outcomes from the primary screen across a wide variety of cell viability assays against different cell lines or primary patient cells. Each compound was converted into an integer which represents its activity outcome in each cell viability assay. […] Integer 2 represents compounds in “inconclusive” category which is corresponding to light red in the heat map. […] Compounds not tested in the assay were labeled as 4 and shown as grey in the heat map.

[9] = system: normal and solid tumor cell lines

With CC(=O)OC[C@H]1O[C@@H]([S-])[C@H](OC(C)=O)[C@@H](OC(C)=O)[C@@H]1OC(C)=O.CCP(CC)CC.[Au+] [auranofin] the “differential cytotoxicity between CLL cells and lymphocytes from normal donors” value [1] was “differential cytotoxicity”, the EC50 (caspase-3/7) was less than 0.1 µM and the IC50 [2] was less than 1 µM. For the same compound, the IC50 ([2]; listed as Auranofin) was 0.07 µM, the “potency shift between CLL and normal donor samples” value [3] was 30 fold and the “potency shift between CLL and normal donor samples” value ([3]; listed as Auranofin) was “greater than 30 fold”. The IC50 ([3]; read-out: IC50 normal, average of 2 normal donors, fresh, Figure 5) was 2.05 µM, the “life span of mice inoculated with lymphocytic leukemia P388” value [4] was “effective in increasing the life span” and the “inhibition of human thioredoxin reductase” value [5] was “strongly inhibit”.
In the case of OC[C@H]1O[C@H]([S-])[C@H](O)[C@@H](O)[C@@H]1O.[Au+] [aurothioglucose], the “inhibition of human thioredoxin reductase” value [5] is given as “strongly inhibit”.
With Nc1ncn([C@@H]2O[C@H](CO)[C@@H](O)[C@H]2O)c(=O)n1 [azacitidine] the “differential cytotoxicity between CLL cells and lymphocytes from normal donors” value [1] was “differential cytotoxicity”, the EC50 (caspase-3/7; Homo sapiens) was 5.1 µM and the “difference in efficacy between CLL and unaffected donor samples” value ([3]; at 19 µM and 57 µM, the two highest testing concentrations) was “over 40%”. The “potency shift between CLL and normal donor samples” value [3] was “about 3 fold”, the “decreased efficacy to normal B cells” value ([3]; versus CLL cells) was “over 40%” and the IC50 ([6]; read-out: IC50 CLL, average of cells from 7 CLL patients, fresh, Figure 5) was 8.1 µM. The IC50 [7] was 15.9 µM.
In the case of OCC(S)CS (centres unmarked) [dimercaprol], the “differential cytotoxicity between CLL cells and lymphocytes from normal donors” value [1] is reported as “differential cytotoxicity”, the EC50 (caspase-3/7; Homo sapiens) is reported as less than 0.1 µM and the IC50 [2] is reported as less than 1 µM. For the same compound, the IC50 ([2]; listed as Dimercaprol) was 0.38 µM, the “potency shift between CLL and normal donor samples” value [3] was 50 fold and the IC50 [7] was 19.4 µM.
In the case of O=C(O)CCCc1ccc(N(CCCl)CCCl)cc1 [chlorambucil], the concentration-response curve class (primary CLL cells) is listed as 3, the IC50 ([6]; 24 h) is listed as 12 to 30 µM and the “frequency of complete responses” value (CLL) is listed as “less than 5%”.
In the case of tyrothricin, the “cytotoxicity in ME-180 cells” value [8] is reported as “prominent cytotoxicity”, the “activity in cytotoxicity profiling assays” value [9] is reported as “pan-active” and the “potency variation across cytotoxicity profiling assays” value [9] is reported as less than 5 fold.

Source: article PMC3779154, “Identification of Therapeutic Candidates for Chronic Lymphocytic Leukemia from a Library of Approved Drugs” (PLoS ONE, 2013)
